Assay results as given in US20240409557A1, “5,6-FUSED AND 6,6-FUSED BICYCLIC ALCOHOLS AND ETHERS AND COMPOSITIONS FOR USE AS 15-PROSTAGLANDIN DEHYDROGENASE MODULATORS” (AMGEN INC., priority 2023, published 2024).

Experiments:
15-PGDH in A549 cells = target: T1, 15-PGDH in A549 cells (Homo sapiens, UniProt P15428); assay: A549 cellular 15-PGDH assay (PGE2 accumulation, HTRF); type: cell-based; settings: interleukin-stimulated, inhibitor 24 hrs, PGE2 by competitive HTRF, read-out: A549 Cell Assay IC50
T1 construct: endogenous in cells; host or cells: A549
T1 sequence (P15428 1-266): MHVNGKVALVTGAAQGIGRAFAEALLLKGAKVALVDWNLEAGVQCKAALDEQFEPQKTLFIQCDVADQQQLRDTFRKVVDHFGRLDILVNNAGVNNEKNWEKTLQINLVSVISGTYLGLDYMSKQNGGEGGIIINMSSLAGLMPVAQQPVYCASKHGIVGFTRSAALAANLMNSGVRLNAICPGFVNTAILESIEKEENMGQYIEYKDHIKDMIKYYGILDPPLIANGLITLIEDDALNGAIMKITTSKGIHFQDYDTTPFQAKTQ
Method in brief: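 Supernatant PGE2 was quantified by competitive HTRF, in which sample PGE2 blocks FRET between a europium cryptate-labelled antibody and labelled PGE2. It came from A549 epithelial cells induced with IL-13. IC50s were calculated from the inversely proportional signal.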

[1] = target: T2, human recombinant 15-PGDH (Homo sapiens, UniProt P15428); assay: Recombinant 15-PGDH enzymatic inhibition assay (PGDH-Lumi, NADH signal); type: biochemical; settings: recombinant 15-PGDH; 15 min pre-incubation, 60 min reaction with PGE2 and NAD+, NADH signal
T2 sequence (P15428 1-266): T1 sequence (P15428 1-266)
Method in brief: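 Buffer 50 mM Tris pH 7.5 with 0.01% Tween-20 and […]; compound, 22 two-fold dilutions, pre-incubated with enzyme 15 min before substrate.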

Compound	IC50 (15-PGDH in A549 cells)	IC50 [1]
O[C@@H](c1cc2ccc(-c3cnc4[nH]nnc4c3)nc2s1)C1CCOCC1 (single isomer, unassigned) [Compound B44R]	2.61 nM	0.464 nM
Cn1cc2cc(-c3ccc4cc(C5(O)CC(F)(F)C5)sc4n3)ccc2n1 [Compound C49, 3,3-difluoro-1-(6-(2-methyl-2H-indazol-5-yl)thieno[2,3-b]pyridin-2-yl)cyclobutanol]	1.82 nM	13.2 nM
Cn1cc2cc(-c3ncc4cc([C@]5(O)C[C@@H](C(F)(F)F)C5)sc4n3)cnc2n1 [Compound C71C, cis-1-(2-(2-methyl-2H-pyrazolo[3,4-b]pyridin-5-yl)thieno[2,3-d]pyrimidin-6-yl)-3-(trifluoromethyl)cyclobutanol]	0.142 nM	0.54 nM
Cn1cc2cc(-c3ccc4cc(C5(O)CC6(CC6)C5)sc4n3)cnc2n1 [Compound C61, 5-(6-(2-methyl-2H-pyrazolo[3,4-b]pyridin-5-yl)thieno[2,3-b]pyridin-2-yl)spiro[2.3]hexan-5-o1]	0.0594 nM	0.28 nM
[2H][C@](O)(c1cc2ccc(-c3cnc4nn(C)cc4c3)nc2s1)C1CCOCC1 (single isomer, unassigned) [Compound B66R]	0.303 nM	0.396 nM
CO[C@H]1CC[C@]1(O)c1cc2ccc(-c3cnc4nn(C)cc4c3)nc2s1 (single isomer, unassigned) [Compound C70RS]	> 750 nM	3860 nM
Cn1nnc2cc(-c3ccc4cc([C@]5(O)C[C@@H](C(F)F)C5)sc4n3)cnc21 [Compound C76C, cis-3-(difluoromethyl)-1-(6-(3-methyl-3H-[1,2,3]triazolo[4,5-b]pyridin-6-yl)thieno[2,3-b]pyridin-2-yl)cyclobutanol]	1.03 nM	0.832 nM
Cn1cc2cc(-c3ccc4sc([C@]5(O)C[C@](C)(C#N)C5)cc4n3)cnc2n1 (single isomer, unassigned) [Compound C106T, trans-3-hydroxy-1-methyl-3-(5-(2-methyl-2H-pyrazolo[3,4-b]pyridin-5-yl)thieno[3,2-b]pyridin-2-yl)cyclobutanecarbonitrile]	45.2 nM	24.2 nM
CCn1cc2cc(-c3ccc4cc([C@]5(O)C[C@@H](C(F)F)C5)sc4n3)cnc2n1 [Compound C87C, cis-3-(difluoromethyl)-1-(6-(2-ethyl-2H-pyrazolo[3,4-b]pyridin-5-yl)thieno[2,3-b]pyridin-2-yl)cyclobutanol]	0.842 nM	0.61 nM
Cn1cc2cc(-c3cnc4sc([C@@H](O)C5CC(F)(F)C5)cc4c3)cnc2n1 (single isomer, unassigned) [Compound B77S]	11.4 nM	154 nM
O[C@@H](c1cc2ccc(-c3cncnc3)nc2s1)C1CC(F)(F)C1 (single isomer, unassigned) [Compound B57R]	0.657 nM	0.32 nM
Cn1cc2cc(-c3ccc4cc([C@H](O)[C@H]5C[C@H](C(F)(F)F)C5)sc4n3)cnc2n1 (single isomer, unassigned) [Compound B84RT]	0.515 nM	0.365 nM
Cn1cc2cc(-c3ccc4ccc([C@]5(O)C[C@@H](C(F)F)C5)cc4n3)cnc2n1 [Compound D5C, cis-3-(difluoromethyl)-1-(2-(2-methyl-2H-pyrazolo[3,4-b]pyridin-5-yl)-7-quinolinyl)cyclobutanol]	253 nM	198 nM
Cn1cc2cc(-c3ccc4cc([C@@H](O)[C@H]5CC5(F)F)sc4n3)cnc2n1 (single isomer, unassigned) [Compound B85SR]	1.5 nM	1.22 nM
Cn1cc2cc(-c3ccc4cc(C(O)C5CCOC5)sc4n3)cnc2n1 (centres unmarked) [Compound B19]	0.171 nM	0.538 nM
CO[C@]1(C)C[C@@](O)(c2cc3cnc(-c4cnc5c(c4)nnn5C)nc3s2)C1 (single isomer, unassigned) [Compound C121C]	23.8 nM	10.4 nM
COCCC(O)c1cc2ccc(-c3cnc4nn(C)cc4c3)nc2s1 (centres unmarked) [Compound B29, 3-methoxy-1-(6-(2-methyl-2H-pyrazolo[3,4-b]pyridin-5-yl)thieno[2,3-b]pyridin-2-yl)propan-1-ol]	1.04 nM	0.38 nM
Cn1cc2cc(-c3cnc4cc([C@@H](O)C5CC(F)(F)C5)sc4c3)cnc2n1 (single isomer, unassigned) [Compound B78S]	57.1 nM	896 nM
Cn1cc2cc(-c3ccc4ccc([C@@H](O)C5CCOCC5)cc4n3)cnc2n1 (single isomer, unassigned) [Compound D4S]	305 nM	426 nM

Compound	IC50 (15-PGDH in A549 cells)	IC50 [1]
Cn1cc2cc(-c3ncc4cc([C@]5(O)C[C@](C)(C#N)C5)sc4n3)cnc2n1 (single isomer, unassigned) [Compound C96T, trans-3-hydroxy-1-methyl-3-(2-(2-methyl-2H-pyrazolo[3,4-b]pyridin-5-yl)thieno[2,3-d]pyrimidin-6-yl)cyclobutanecarbonitrile]	1.39 nM	0.445 nM
COCC(O)c1cc2ccc(-c3cnc4nn(C)cc4c3)nc2s1 (centres unmarked) [Compound B32, 2-methoxy-1-(6-(2-methyl-2H-pyrazolo[3,4-b]pyridin-5-yl)thieno[2,3-b]pyridin-2-yl)ethanol]	7.49 nM	1.18 nM
C[C@@H](O)c1cc2c(-c3ccnn3C)cc(-c3cnc4nn(C)cc4c3)nc2s1 (single isomer, unassigned) [Compound B6R]	4.86 nM	1.84 nM
Cn1cc2cc(-c3cc(-c4ccnn4C)c4cc(C(O)C5CCC5)sc4n3)cnc2n1 (centres unmarked) [Compound B2, cyclobutyl(6-(2-methyl-2H-pyrazolo[3,4-b]pyridin-5-yl)-4-(1-methyl-1H-pyrazol-5-yl)thieno[2,3-b]pyridin-2-yl)methanol]	1.04 nM	1.51 nM
Cn1cc2cc(-c3ccc4cc(C(O)[C@H]5CCOC5)sc4n3)cnc2n1 (single isomer, unassigned) [B19(RS)S]	1.03 nM	0.637 nM
Cn1cc2cc(-c3ccc4cc([C@@H](O)[C@@H]5CC5(F)F)sc4n3)cnc2n1 (single isomer, unassigned) [Compound B85SS]	2.83 nM	3.32 nM
COCC[C@H](O)c1cc2ccc(-c3cnc4nn(C)cc4c3)nc2s1 (single isomer, unassigned) [Compound B29S]	3.08 nM	10.5 nM
Cc1cn2ccc(-c3ccc4cc([C@@H](O)C5CC(F)(F)C5)sc4n3)cc2n1 (single isomer, unassigned) [Compound B55S]	11.8 nM	2.64 nM
Cn1cc2cc(-c3ccc4nc([C@]5(O)C[C@@H](C(F)F)C5)sc4n3)cnc2n1 [Compound C81C, cis-3-(difluoromethyl)-1-(5-(2-methyl-2H-pyrazolo[3,4-b]pyridin-5-yl)[1,3]thiazolo[5,4-b]pyridin-2-yl)cyclobutanol]	2.69 nM	0.641 nM
Cn1cc2cc(-c3ncc4cc(C5(O)CC6(CC6)C5)sc4n3)cnc2n1 [Compound C107, 5-(2-(2-methyl-2H-pyrazolo[3,4-b]pyridin-5-yl)thieno[2,3-d]pyrimidin-6-yl)spiro[2.3]hexan-5-ol]	0.989 nM	0.49 nM
CC(O)c1cc2ccc(-c3cnc4nn(C)cc4c3)nc2s1 (centres unmarked) [Compound B25, 1-(6-(2-methyl-2H-pyrazolo[3,4-b]pyridin-5-yl)thieno[2,3-b]pyridin-2-yl)ethanol]	16.4 nM	5.85 nM
Cn1nnc2cc(-c3ncc4cc([C@]5(O)C[C@@H](OC(F)(F)F)C5)sc4n3)cnc21 [Compound C111C, cis-1-(2-(3-methyl-3H-[1,2,3]triazolo[4,5-b]pyridin-6-yl)thieno[2,3-d]pyrimidin-6-yl)-3-(trifluoromethoxy)cyclobutanol]	3.95 nM	1.09 nM
Cn1nnc2cc(-c3ccc4ccc([C@@H](O)C5CCOCC5)cc4n3)cnc21 (single isomer, unassigned) [Compound D3S]	> 750 nM	11500 nM
Cn1cc2cc(-c3ccc4nc([C@H](O)C5CC(F)(F)C5)sc4n3)cnc2n1 (single isomer, unassigned) [Compound B72R]	0.0479 nM	0.216 nM
O[C@]1(c2cc3cnc(-c4ccnnc4)nc3s2)C[C@H](C(F)(F)F)C1 [Compound C126C, cis-1-(2-(4-pyridazinyl)thieno[2,3-d]pyrimidin-6-yl)-3-(trifluoromethyl)cyclobutanol]	29 nM	11.6 nM
Cn1cc2cc(-c3ccc4c(N)c([C@H](O)C5CC(F)(F)C5)sc4n3)cnc2n1 (single isomer, unassigned) [Compound B95R]	1.64 nM	1.21 nM
Cn1cc2cc(-c3ccc4sc([C@]5(O)C[C@@H](C(F)(F)F)C5)cc4n3)cnc2n1 [Compound C86C, cis-1-(5-(2-methyl-2H-pyrazolo[3,4-b]pyridin-5-yl)thieno[3,2-b]pyridin-2-yl)-3-(trifluoromethyl)cyclobutanol]	4.12 nM	1.52 nM
Cn1cc2cc(-c3ccc4cc([C@]5(O)C[C@]6(CC6(F)F)C5)sc4n3)cnc2n1 (single isomer, unassigned) [Compound C88C, cis-1,1-difluoro-5-(6-(2-methyl-2H-pyrazolo[3,4-b]pyridin-5-yl)thieno[2,3-b]pyridin-2-yl)spiro[2.3]hexan-5-ol]	0.455 nM	0.503 nM
